Test results published in patent publication US20230250096A1, “SUBSTITUTED PHENYL-1H-PYRROLO[2,3-c] PYRIDINE DERIVATIVES” (Janssen Pharmaceutica NV, priority 2021, published 2023).

What was measured:
MEIS1 mRNA expression = MEIS1 mRNA expression assay (Quantigene Singleplex) in MOLM14 cells; assay type: cell-based, human; conditions: 48 hours incubation
In short: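 MOLM14 cells, 3,750/well, exposed to increasing compound concentrations for 48 h. MEIS1 mRNA measured by QuantiGene Singleplex branched-DNA hybridization (lysis 45 min, hybridization 18–22 h, both 55 °C), normalized to RPL28. IC50 fitted to background-corrected fold change versus DMSO.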

[1] = target: T1, menin/MLL (terbium chelate-labeled menin, FITC-MBM1 peptide) (Homo sapiens, UniProt O00255, T541A); test: Menin/MLL homogenous time-resolved fluorescence (HTRF) assay; assay type: binding; conditions: 30 min incubation
T1 construct: Menin (a.a 1-610-6xhis tag, 2.3 mg/mL in 20 mM Hepes)
T1 sequence (O00255 with tags, fused parts or gaps T541A): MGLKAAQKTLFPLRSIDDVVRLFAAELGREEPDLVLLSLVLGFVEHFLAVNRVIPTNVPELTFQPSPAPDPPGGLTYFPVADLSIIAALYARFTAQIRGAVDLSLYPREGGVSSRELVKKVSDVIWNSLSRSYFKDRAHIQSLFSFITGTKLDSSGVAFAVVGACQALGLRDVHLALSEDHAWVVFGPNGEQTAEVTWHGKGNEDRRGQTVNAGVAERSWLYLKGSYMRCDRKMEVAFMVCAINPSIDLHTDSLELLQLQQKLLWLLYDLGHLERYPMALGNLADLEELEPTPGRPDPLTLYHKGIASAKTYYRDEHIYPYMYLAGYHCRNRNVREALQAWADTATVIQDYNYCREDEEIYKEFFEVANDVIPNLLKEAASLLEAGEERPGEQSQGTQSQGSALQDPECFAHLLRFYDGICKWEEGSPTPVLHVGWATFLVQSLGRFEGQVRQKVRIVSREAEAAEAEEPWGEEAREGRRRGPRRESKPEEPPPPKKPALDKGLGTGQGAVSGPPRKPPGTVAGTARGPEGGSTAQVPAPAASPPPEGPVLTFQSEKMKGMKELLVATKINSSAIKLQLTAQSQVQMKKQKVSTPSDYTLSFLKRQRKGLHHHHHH
In short: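 Terbium-labeled menin (a.a. 1-610, His-tagged; […]) pre-incubated 30 min with compound, then 75 nM FITC-MBM1 peptide added for 15 min at ambient temperature in Tris pH 7.5 buffer, 0.5% DMSO. HTRF 520/490 nm ratio read; IC50 from 11-point four-fold titrations, typically from 10 μM.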

Row | IC50 (MEIS1 mRNA expression; Homo sapiens, MOLM-14, 48 h) [nM] | IC50 [1] [nM] | IC50 (MEIS1 mRNA expression) [nM] | SMILES
1 | ~39 | 0.284 |  | Cc1cncc2c1c(CC1CN(CC3CCN(S(C)(=O)=O)CC3)C1)cn2-c1ccc(F)cc1C(=O)N(C)C(C)C [Compound 64]
2 | 45 | 0.079 |  | COC(=O)N1CCC(CN2CC(Cc3cn(-c4ccc(F)cc4C(=O)N(C)C(C)C)c4cncc(C)c34)C2)CC1 [Compound 65]
3 | 2220 | 1.3 |  | Cc1cncc2c1c(CC1CN(CC(=O)N3CCOCC3)C1)cn2-c1ccc(F)cc1C(=O)N(C)C(C)C [Compound 83]
4 | 94 | 0.155 |  | Cc1cncc2c1c(CC1CN(C3CC4(CC(NC(=O)OC(C)(C)C)C4)C3)C1)cn2-c1ccc(F)cc1C(=O)N(C)C(C)C (stereo not shown) [Compound 91]
5 | 52 | 0.219 |  | Cc1cncc2c1c(CC1CN(CC3CCC4(CC3)OCCO4)C1)cn2-c1ccc(F)cc1C(=O)N(C)C(C)C [Compound 92]
6 | ~360 | 0.418 |  | CC(=O)N1CCC(CN2CCC(Cc3cn(-c4ccc(F)cc4S(=O)(=O)C(C)C)c4cncc(C)c34)C2)CC1 (stereo not shown) [Compound 93]
7 | 309 | 0.079 |  | CC(=O)N1CCC(CN2CC(Cc3cn(-c4ccc(F)cc4C(=O)N(C)C(C)C)c4cncc(C)c34)C2)C1 (stereo not shown) [Compound 94]
8 | ~914 | 0.601 |  | Cc1cncc2c1c(CC1CN(CC3CCCC(=O)N3)C1)cn2-c1ccc(F)cc1C(=O)N(C)C(C)C (stereo not shown) [Compound 95]
9 | 3690 | 4.57 |  | Cc1cncc2c1c(CC1CN(CC(=O)N3CCC(F)(F)C3)C1)cn2-c1ccc(F)cc1C(=O)N(C)C(C)C [Compound 96]
10 | 1610 | 1.97 |  | Cc1cncc2c1c(CC1CN(CC(=O)N3CC4CC4C3)C1)cn2-c1ccc(F)cc1C(=O)N(C)C(C)C (stereo not shown) [Compound 97]
11 | ~535 | 0.747 |  | Cc1cncc2c1c(CC1CN(CC(=O)N3CCCCC3)C1)cn2-c1ccc(F)cc1C(=O)N(C)C(C)C [Compound 98]
12 | > 1000 | 3.02 |  | CC(=O)N1CC(CN2CCC(Cc3cn(-c4ccc(F)cc4C(=O)N(C)C(C)C)c4cncc(C)c34)CC2)C1 [Compound 102]
13 | > 1000 | 0.728 |  | Cc1cncc2c1c(CC1CCN(C[C@@H]3CCC(=O)N3)CC1)cn2-c1ccc(F)cc1C(=O)N(C)C(C)C [Compound 105]
14 | 226 | 0.188 |  | CC(=O)N1CC2(CC(CN3CCC(Cc4cn(-c5ccc(F)cc5C(=O)N(C)C(C)C)c5cncc(C)c45)C3)C2)C1 (stereo not shown) [Compound 107]
15 | 53 | 0.304 |  | Cc1cncc2c1c(CC1CCN(CC3CCOCC3)CC1)cn2-c1ccc(F)cc1C(=O)N(C)C(C)C [Compound 109]
16 | ~1070 | 1.8 |  | Cc1cncc2c1c(CC1CCN(C[C@H]3CCC(=O)N3)CC1)cn2-c1ccc(F)cc1C(=O)N(C)C(C)C [Compound 110]
17 | ~707 | 0.745 |  | COCC(=O)N1CC(CN2CCC(Cc3cn(-c4ccc(F)cc4C(=O)N(C)C(C)C)c4cncc(C)c34)CC2)C1 [Compound 111]
18 | 345 | 0.555 |  | CC(=O)N1CC[C@@H](CN2CCC(Cc3cn(-c4ccc(F)cc4C(=O)N(C)C(C)C)c4cncc(C)c34)CC2)C1 [Compound 112]
19 | ~493 | 0.642 |  | CC(=O)N1CC[C@H](CN2CCC(Cc3cn(-c4ccc(F)cc4C(=O)N(C)C(C)C)c4cncc(C)c34)CC2)C1 [Compound 113]
20 | 487 | 0.173 |  | CC(=O)N1CC(CN2CC(Cc3cn(-c4ccc(F)cc4C(=O)N(C)C(C)C)c4cncc(C)c34)C2)C1 [Compound 114]
21 | 11 | 0.021 |  | Cc1cncc2c1c(CC1CN(C[C@H]3CC[C@H](NS(C)(=O)=O)CC3)C1)cn2-c1ccc(F)cc1C(=O)N(C)C(C)C [Compound 115]
22 | 117 | 0.139 |  | CC(=O)N[C@H]1CC[C@H](CN2CC(Cc3cn(-c4ccc(F)cc4C(=O)N(C)C(C)C)c4cncc(C)c34)C2)CC1 [Compound 118]
23 | 277 | 0.291 |  | CNC(=O)C1CC(CN2CCC(Cc3cn(-c4ccc(F)cc4C(=O)N(C)C(C)C)c4cncc(C)c34)CC2)C1 (stereo not shown) [Compound 129]
24 | 314 | 1.2 |  | CC(=O)N1CCC(CN2C[C@H](Cc3cn(-c4ccc(F)cc4C(=O)N(C)C(C)C)c4cncc(C)c34)C[C@H]2C)CC1 [Compound 130]

Row | IC50 (MEIS1 mRNA expression; Homo sapiens, MOLM-14, 48 h) [nM] | IC50 [1] [nM] | IC50 (MEIS1 mRNA expression) [nM] | SMILES
25 | 129 | 0.132 |  | CC(=O)N1CCC(CN2C[C@@H](Cc3cn(-c4ccc(F)cc4C(=O)N(C)C(C)C)c4cncc(C)c34)C[C@H]2C)CC1 [Compound 131]
26 | ~573 | 1.21 |  | CC(=O)N1CCC(CN2C[C@H](Cc3cn(-c4ccc(F)cc4C(=O)N(C)C(C)C)c4cncc(C)c34)C[C@@H]2C)CC1 [Compound 132]
27 | 42 | 0.051 |  | CC(=O)N1CCC(CN2C[C@@H](Cc3cn(-c4ccc(F)cc4C(=O)N(C)C(C)C)c4cncc(C)c34)C[C@@H]2C)CC1 [Compound 133]
28 | 10 | 0.086 |  | Cc1cncc2c1c(CC1CN(C[C@H]3CC[C@H](C(=O)N(C)C)CC3)C1)cn2-c1ccc(F)cc1C(=O)N(C)C(C)C [Compound 142]
29 | 5 | 0.064 |  | CCNC(=O)[C@H]1CC[C@H](CN2CC(Cc3cn(-c4ccc(F)cc4C(=O)N(C)C(C)C)c4cncc(C)c34)C2)CC1 [Compound 143]
30 | ~748 | 1.06 |  | CC(=O)N1CCC(CN2CCC[C@H](Cc3cn(-c4ccc(F)cc4C(=O)N(C)C(C)C)c4cncc(C)c34)C2)CC1 [Compound 145]
31 | > 1000 | 1.22 |  | CC(=O)N1CCC(CN2CCC[C@@H](Cc3cn(-c4ccc(F)cc4C(=O)N(C)C(C)C)c4cncc(C)c34)C2)CC1 [Compound 146]
32 | 23 | 0.037 |  | Cc1cncc2c1c(C[C@@H]1CCN(CC3CCN(C(=O)N(C)C)CC3)C1)cn2-c1ccc(F)cc1C(=O)N(C)C(C)C [Compound 149]
33 | 197 | 0.053 |  | Cc1cncc2c1c(C[C@@H]1CCN(CC3CCN(C(=O)NC4CC4)CC3)C1)cn2-c1ccc(F)cc1C(=O)N(C)C(C)C [Compound 152]
34 | > 1000 | 4.02 |  | CC(=O)N1CCC(CN2CCCC(Cc3cn(-c4ccc(F)cc4C(=O)N(C)C(C)C)c4cncc(C)c34)CC2)CC1 (stereo not shown) [Compound 160]
35 | 259 | 0.405 |  | Cc1cncc2c1c(C[C@@H]1CCN(C[C@H]3CC[C@H](C(=O)N4CCC4)CC3)C1)cn2-c1ccc(F)cc1C(=O)N(C)C(C)C [Compound 179]
36 | 1940 | 1.02 |  | CC(=O)N1C[C@@H]2[C@@H](CN3CC[C@@H](Cc4cn(-c5ccc(F)cc5C(=O)N(C)C(C)C)c5cncc(C)c45)C3)[C@@H]2C1 [Compound 187]
37 | 41 | 0.071 |  | Cc1cncc2c1c(C[C@@H]1CCN(CC3CCCCC3)C1)cn2-c1ccc(F)cc1C(=O)N(C)C(C)C [Compound 193]
38 | 66 | 0.072 |  | Cc1cncc2c1c(C[C@H]1CCN(CC3CCCCC3)C1)cn2-c1ccc(F)cc1C(=O)N(C)C(C)C [Compound 194]
39 | 156 | 0.153 |  | Cc1cncc2c1c(CC1CCN(CC3CCC(=O)NC3)CC1)cn2-c1ccc(F)cc1C(=O)N(C)C(C)C (stereo not shown) [Compound 195]
40 | 438 | 0.19 |  | Cc1cncc2c1c(CC1CN(CC3CNCC(=O)C3)C1)cn2-c1ccc(F)cc1C(=O)N(C)C(C)C (stereo not shown) [Compound 196]
41 |  | 0.602 | > 1000 | CC(=O)NC1CCC(N2CC[C@H](Cc3cn(-c4ccc(F)cc4C(=O)N(C)C(C)C)c4cncc(C)c34)C2)CC1 (stereo partly shown) [Compound 210]
42 | 21 | 0.039 |  | Cc1cncc2c1c(C[C@@H]1CCN(CC3(C)CCN(C(N)=O)CC3)C1)cn2-c1ccc(F)cc1C(=O)N(C)C(C)C [Compound 217]
43 | 48 | 0.094 |  | Cc1cncc2c1c(C[C@H]1CCN(CC3(C)CCN(C(N)=O)CC3)C1)cn2-c1ccc(F)cc1C(=O)N(C)C(C)C [Compound 218]
44 | 32 | 0.039 |  | Cc1cncc2c1c(CC1CN(CC3(C)CCN(C(N)=O)CC3)C1)cn2-c1ccc(F)cc1C(=O)N(C)C(C)C [Compound 219]
45 | > 1000 | 0.932 |  | CC(=O)N1C[C@@H]2[C@H](CN3CC[C@@H](Cc4cn(-c5ccc(F)cc5C(=O)N(C)C(C)C)c5cncc(C)c45)C3)[C@@H]2C1 [Compound 220]
46 | 109 | 0.311 |  | Cc1cncc2c1c(CC1CN(C[C@H]3CC[C@@H](C(=O)N(C)C)CC3)C1)cn2-c1ccc(F)cc1C(=O)N(C)C(C)C [Compound 221]
47 | 279 | 0.239 |  | CC(=O)N1CC2CC1CC2N1CC[C@@H](Cc2cn(-c3ccc(F)cc3C(=O)N(C)C(C)C)c3cncc(C)c23)C1 (stereo partly shown) [Compound 223]
